In ChEMBL document CHEMBL1139640, “Water soluble prodrug of a COX-2 selective inhibitor suitable for intravenous administration in models of cerebral ischemia” (Bioorg Med Chem Lett, 2005):

Key:
Rattus norvegicus [1] = assay: Plasma concentration of compound 1 in Sprague-Dawley rats upon 2 mg/kg iv dose of prodrug after 30 minutes; type: functional, organism-based; set-up: dose 2 mg/kg
Rattus norvegicus [2] = assay: Concentration of compound 16 in brain of Sprague-Dawley rats upon 5 mg/kg bolus+ 3 mg/Kg/h infusion of compound after 24 hours; type: functional, organism-based
Rattus norvegicus [3] = assay: Concentration of compound 16 in plasma of Sprague-Dawley rats upon 5 mg/kg bolus+ 3 mg/Kg/h infusion of compound after 6 hours; type: functional, organism-based
Rattus norvegicus [4] = assay: Concentration of compound 16 in brain of Sprague-Dawley rats upon 10 mg/kg bolus+ 5 mg/Kg/h infusion of compound after 24 hours; type: functional, organism-based
Rattus norvegicus [5] = assay: Concentration of compound 16 in plasma of Sprague-Dawley rats upon 10 mg/kg bolus+ 5 mg/Kg/h infusion of compound after 6 hours; type: functional, organism-based
Rattus norvegicus [6] = assay: Concentration of compound 16 in plasma of Sprague-Dawley rats upon 5 mg/kg bolus+ 3 mg/Kg/h infusion of compound after 24 hours; type: functional, organism-based
Rattus norvegicus [7] = assay: Concentration of compound 16 in plasma of Sprague-Dawley rats upon 10 mg/kg bolus+ 5 mg/Kg/h infusion of compound after 24 hours; type: functional, organism-based
Rattus norvegicus [8] = assay: Ratio of concentration of compound 16 in brain to that of plasma of Sprague-Dawley rats upon 5 mg/kg bolus+ 3 mg/Kg/h infusion of compound after 24 hours; type: functional
Rattus norvegicus [9] = assay: Ratio of concentration of compound 16 in brain to that of plasma of Sprague-Dawley rats upon 10 mg/kg bolus+ 5 mg/Kg/h infusion of compound after 24 hours; type: functional
Rattus norvegicus [10] = assay: Concentration of compound 1 in brain of Sprague-Dawley rats upon 10 mg/kg iv dose after 3 hours; type: functional, organism-based; set-up: dose 10 mg/kg
Rattus norvegicus [11] = assay: Concentration of compound 1 in plasma of Sprague-Dawley rats upon 10 mg/kg iv dose after 3 hours; type: functional, organism-based; set-up: dose 10 mg/kg
[12] = biological target: Prostaglandin G/H synthase 1 (Homo sapiens, UniProt P23219); assay: Inhibitory concentration against prostaglandin G/H synthase 1 in human whole blood; type: tissue-based
Prostaglandin G/H synthase 1, sequence (P23219 whole entry): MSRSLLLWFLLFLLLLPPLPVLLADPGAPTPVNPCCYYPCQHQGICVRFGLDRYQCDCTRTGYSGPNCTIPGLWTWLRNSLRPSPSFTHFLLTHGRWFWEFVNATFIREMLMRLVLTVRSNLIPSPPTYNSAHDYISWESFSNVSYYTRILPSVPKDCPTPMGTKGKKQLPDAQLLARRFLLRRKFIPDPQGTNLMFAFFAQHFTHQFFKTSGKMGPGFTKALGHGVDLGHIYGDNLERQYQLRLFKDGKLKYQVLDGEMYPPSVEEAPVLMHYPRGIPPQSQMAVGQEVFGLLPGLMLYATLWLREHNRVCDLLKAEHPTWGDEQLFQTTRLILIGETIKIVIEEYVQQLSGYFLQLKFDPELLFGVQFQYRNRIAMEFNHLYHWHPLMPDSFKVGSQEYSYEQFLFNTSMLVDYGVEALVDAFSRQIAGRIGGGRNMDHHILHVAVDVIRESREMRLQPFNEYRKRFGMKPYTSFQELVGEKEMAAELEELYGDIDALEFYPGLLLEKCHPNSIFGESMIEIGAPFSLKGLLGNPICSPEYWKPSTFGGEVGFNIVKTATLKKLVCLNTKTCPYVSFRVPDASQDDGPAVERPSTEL

[13] = biological target: T1, Prostaglandin G/H synthase 2 (Homo sapiens, UniProt P35354); assay: Inhibitory concentration against prostaglandin G/H synthase 2 in human whole blood
T1 sequence (P35354 whole entry): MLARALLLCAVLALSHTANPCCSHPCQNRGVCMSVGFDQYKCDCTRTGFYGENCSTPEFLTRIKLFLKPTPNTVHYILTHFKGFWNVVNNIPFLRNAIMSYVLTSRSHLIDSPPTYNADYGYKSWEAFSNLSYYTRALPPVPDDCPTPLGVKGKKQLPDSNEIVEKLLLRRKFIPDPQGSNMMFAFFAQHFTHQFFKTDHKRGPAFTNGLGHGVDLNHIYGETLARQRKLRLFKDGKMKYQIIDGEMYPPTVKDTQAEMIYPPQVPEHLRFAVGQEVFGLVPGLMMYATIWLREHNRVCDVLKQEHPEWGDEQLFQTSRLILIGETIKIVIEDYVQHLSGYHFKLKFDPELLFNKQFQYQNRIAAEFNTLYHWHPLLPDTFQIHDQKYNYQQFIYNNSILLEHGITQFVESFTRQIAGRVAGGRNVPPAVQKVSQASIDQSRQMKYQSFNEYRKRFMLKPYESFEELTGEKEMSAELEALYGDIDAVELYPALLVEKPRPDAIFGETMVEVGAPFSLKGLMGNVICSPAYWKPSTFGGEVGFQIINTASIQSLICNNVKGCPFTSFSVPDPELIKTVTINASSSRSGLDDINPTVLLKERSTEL

`CCOC(=O)/C(=C(\COC(=O)[C@@H](N)CCCCN)c1ccc(S(C)(=O)=O)cc1)c1ccc(F)c(F)c1` showed a Concentration (Rattus norvegicus [1]) of 0.4 µM.

For `CC(=O)OC/C(=C(\C(=O)OCC[N+](C)(C)C)c1cccc(F)c1)c1ccc(S(C)(=O)=O)cc1.[Br-]`, the Concentration (Rattus norvegicus [2]) was 5.5 µM, the Concentration (Rattus norvegicus [3]) was 6 µM and the Concentration (Rattus norvegicus [4]) was 11 µM. For the same molecule, the Concentration (Rattus norvegicus [5]) was 16 µM, the Concentration (Rattus norvegicus [6]) was 9.2 µM and the Concentration (Rattus norvegicus [7]) was 20 µM. It also gave a Ratio (Rattus norvegicus [8]) of 59% and a Ratio (Rattus norvegicus [9]) of 55%.

`CC(=O)OC/C(=C(\C(=O)OCC[N+](C)(C)C)c1ccc(F)c(F)c1)c1ccc(S(C)(=O)=O)cc1` was tested, and the Concentration (Rattus norvegicus [10]) was 0.7 µM, the Concentration (Rattus norvegicus [11]) was 1.4 µM and the Concentration (Rattus norvegicus [1]) was 0.9 µM.

With `CS(=O)(=O)c1ccc(C2=C(c3cccc(F)c3)C(=O)OC2)cc1` the IC50 [12] was 65 µM and the IC50 [13] was 1.3 µM.

`CCOC(=O)[C@H](N)COC(=O)/C(=C(\COC(C)=O)c1ccc(S(C)(=O)=O)cc1)c1ccc(F)c(F)c1` was tested, and the Concentration (Rattus norvegicus [1]) was 1.4 µM.
